From patent publication US8993282B2, “Carotenoid fermentation method” (JX Nippon Oil & Energy Corporation, priority 2008, dated 2015)

What was measured:
[1] = system: Paracoccus sp. strain Y-1071; assay: Glutamate supplementation, test tube culture (Pharmamedia medium), carotenoid by HPLC; type: cell-based
Description: (§1) In the examples, carotenoids were quantified by high performance liquid chromatography (HPLC) as follows.
(§2) Two columns of Wakosil-II 5 SIL-100 (φ4.6×250 mm) (Wako Pure Chemical Industries, Ltd., Japan) were connected to each other for use as a column. Elution was performed by flowing an n-hexane-tetrahydrofuran-methanol mixed solution (40:20:1), which was a mobile phase, at a flow rate of 1.0 mL/minute at a constant temperature around room temperature. The measurement was performed as follows. Samples were each dissolved in tetrahydrofuran and then diluted 100-fold with the mobile phase. Each dilution was injected in a volume of 20 μL. The column eluate was detected at a wavelength of 470 nm. As a reference for quantification, astaxanthin (SIGMA, Cat. No. A9335) was used. The astaxanthin concentration of the reference solution was determined using the following equation after measuring the absorbance (A) of the reference solution at 477 nm and the area percentage % (B) of the astaxanthin peak at the time of HPLC analysis under the above conditions.
Next, a medium of the following composition (sucrose 30 g/L, Pharmamedia 20 g/L, ammonium sulfate 1.5 g/L, potassium dihydrogenphosphate 1.5 g/L, disodium hydrogenphosphate 12-hydrate 3.8 g/L, calcium chloride dihydrate 0.1 g/L, magnesium sulfate 7-hydrate 4.5 g/L, iron sulfate 7-hydrate 5 g/L, biotin 1 mg/L, silicon-based defoaming agent 1 g/L) was dispensed in 8 ml volumes into cotton-plugged test tubes having an inner diameter of 18 mm (2 tubes in total). One of the tubes was supplemented with monosodium L-glutamate monohydrate to 30 mmol/L, while the other was supplemented with nothing as a control.
The resulting culture solution was then inoculated in 0.1 ml volumes into the two test tube media and cultured with shaking at 28° C. for 4 days at 300 spm.
Each culture solution was measured for its carotenoid concentration by HPLC.

[2] = system: Paracoccus sp. strain A-581-1 (FERM BP-4671); assay: Glutamate supplementation, 5 L fermentation tank culture, carotenoid by HPLC; type: cell-based
Description: as §1
as §2, with “conditions. Astaxanthin concentration (mg/L)=A/2150×B×100” for “conditions.”
A medium of the following composition (sucrose 20 g/L, filtered corn steep liquor 5 g/L, potassium dihydrogenphosphate 0.54 g/L, dipotassium hydrogenphosphate 12-hydrate 2.78 g/L, calcium chloride dihydrate 5.0 g/L, magnesium sulfate 7-hydrate 0.7 g/L, iron sulfate 7-hydrate 3.0 g/L, alcohol-based […] agent 0.2 g/L, pH 7.5) was dispensed in 100 ml volumes into 500 mL cotton-plugged Erlenmeyer flasks and sterilized in an autoclave at 121° C., for 15 minutes to prepare a flask medium for seed culture in 2 flasks.
Next, a medium of the following composition (glucose 40 g/L, corn steep liquor 30 g/L, ammonium sulfate 0.5 g/L, potassium dihydrogenphosphate 2.25 g/L, disodium hydrogenphosphate 12-hydrate 5.7 g/L, calcium chloride dihydrate […], magnesium sulfate 7-hydrate 0.5 g/L, iron sulfate 7-hydrate 5 g/L, alcohol-based defoaming agent 0.5 g/L) was dispensed in 2.0 L volumes into 5 L fermentation tanks (2 tanks in total). One of the fermentation tanks was supplemented with monosodium L-glutamate monohydrate to 15 mmol/L, while the other was supplemented with nothing as a control. These fermentation tanks were sterilized in an autoclave at 121° C. for 30 minutes.
A loopful of Paracoccus sp. strain A-581-1 (FERM BP-4671) was inoculated into the flask medium for seed culture and then cultured with rotary shaking at 27° C. for 2 days at 150 rpm. The resulting culture solution was then inoculated in 90 mL volumes into the individual fermentation tanks, followed by aerobic culture at 27° C. at an aeration volume of 1 vvm for 100 hours. To maintain a pH of 7.1 during culture, the pH was continuously controlled with 20% aqueous sodium hydroxide. Glucose was added in an amount of 30 g on […] day 2 of culture to prevent glucose depletion. At 22 and 29 hours of culture, monosodium L-glutamate monohydrate and ammonium sulfate were added in amounts of 5 g and 3 g, respectively, per liter of the initial medium. The minimum number of agitation rotations was set to 100 rpm, and the number of agitation rotations was varied such that the dissolved oxygen concentration in the culture solution was maintained at 2 to 4 ppm. An alcohol-based defoaming agent was added in an amount of 0.1 g per hour to prevent bubble formation,
At the completion of culture, each culture solution was measured for its carotenoid concentration by HPLC.

[3] = Glutamic acid concentration 30 mmol/L, 28° C. for 4 days
[4] = Glutamic acid concentration 15 mmol/L, 100 hours

Compound: N[C@@H](CCC(=O)O)C(=O)O [Glutamic acid, glutamic acid]
- produced carotenoid concentration compared to the sample without glutamic acid ([1]; 30 mmol/L): higher produced carotenoid concentration
- 3-Hydroxyechinenone [1, 3]: 0.7 mg/L
- Adonixanthin [1, 3]: 18.4 mg/L
- Astaxanthin [1, 3]: 94.8 mg/L
- Asteroidenone [1, 3]: 1.5 mg/L
- Canthaxanthin [1, 3]: 10.0 mg/L
- Echinenone [1, 3]: 6.5 mg/L
- Phoenicoxanthin [1, 3]: 24.8 mg/L
- Total carotenoid [1, 3]: 170.2 mg/L
- Zeaxanthin [1, 3]: 0.28 mg/L
- β-Carotene [1, 3]: 13.1 mg/L
- β-Cryptoxanthin [1, 3]: 0.10 mg/L
- produced carotenoid concentration compared to the sample without glutamic acid ([2]; 15 mmol/L): higher produced carotenoid concentration
- 3-Hydroxyechinenone [2, 4]: 0.05 mg/L
- Adonixanthin [2, 4]: 2.10 mg/L
- Astaxanthin [2, 4]: 5.97 mg/L
- Asteroidenone [2, 4]: 0.02 mg/L
- Canthaxanthin [2, 4]: 1.22 mg/L
- Echinenone [2, 4]: 0.51 mg/L
- Phoenicoxanthin [2, 4]: 2.01 mg/L
- Total carotenoid [2, 4]: 13.68 mg/L
- Zeaxanthin [2, 4]: 0.03 mg/L
- β-Carotene [2, 4]: 1.76 mg/L
- β-Cryptoxanthin [2, 4]: 0.01 mg/L
